Test results: patent US12077503B2, “Substituted cyclic amides and their use as herbicides” (FMC CORPORATION, priority 2015, dated 2024)

Columns and labels:
Assay type in all cases: in vivo
[1] = test system: barnyardgrass (Echinochloa crus-galli); test: Test B flooded paddy test; settings: Echinochloa crus-galli, 360 h, Flood, 250 g ai/ha; visually evaluated after 13 to 15 d; read-out: Plant response rating, Barnyardgrass (0 to 100 scale where 0 is no effect and 100 is complete control)
In short: (§1)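 Plants at 2-leaf stage flooded to 3 cm above soil, with compounds applied directly to paddy water and that depth maintained. Plants kept in greenhouse 13–15 d. Visual rating versus controls on a 0 (no effect) to 100 (complete control) scale.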

[2] = test system: ducksalad (Heteranthera limosa); test: Test B flooded paddy test; settings: Heteranthera limosa, 360 h, Flood, 250 g ai/ha; visually evaluated after 13 to 15 d; read-out: Plant response rating, Ducksalad (0 to 100 scale where 0 is no effect and 100 is complete control)
In short: as §1

rice (Oryra sativa) = test: Test B flooded paddy test; settings: Oryza sativa, 360 h, Flood, 250 g ai/ha; visually evaluated after 13 to 15 d; read-out: Plant response rating, Rice (0 to 100 scale where 0 is no effect and 100 is complete control)
In short: as §1

[3] = test system: sedge, umbrella (small-flower umbrella sedge, Cyperus difformis); test: Test B flooded paddy test; settings: Cyperus difformis, 360 h, Flood, 250 g ai/ha; visually evaluated after 13 to 15 d; read-out: Plant response rating, Sedge, Umbrella (0 to 100 scale where 0 is no effect and 100 is complete control)
In short: as §1

corn (Zea mays) = test: Test A postemergence; settings: Zea mays, post-emergence, 240 h, Postemergence; for plant injury at 125 g/ha: 125 g ai/ha, visual rating about 10 d after treatment, read-out: Corn plant response rating (0 to 100 scale); for Corn plant response rating (crop injury, 0 = no effect, 100 = complete kill) at 500 g/ha: 500 g ai/ha, visual injury, 0 to 100 scale (0 no effect, 100 complete control), approx. 10 d
In short: (§2)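 In a loam soil and sand blend, planted seeds got a preemergence directed soil spray, and young plants at the one- to two-leaf stage, 2–10 cm high, got a postemergence application; ~10 d greenhouse hold; injury rated visually, 0 = none, 100 = complete control.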

[4] = test system: ryegrass, Italian (Italian ryegrass, Lolium multiflorum); test: Test A postemergence; settings: Lolium multiflorum, post-emergence, 240 h, Postemergence; for pest or weed control at 125 g/ha: 125 g ai/ha, visual rating about 10 d after treatment, read-out: Ryegrass, Italian plant response rating (0 to 100 scale); for pest or weed control at 500 g/ha: 500 g ai/ha, visual injury, 0 to 100 scale (0 no effect, 100 complete control), approx. 10 d, read-out: Plant response rating, Ryegrass, Italian
In short: as §2

[5] = test system: wheat (Triticum aestivum); test: Test A postemergence; settings: Triticum aestivum, post-emergence, 240 h, Postemergence; for plant injury at 125 g/ha: 125 g ai/ha, visual rating about 10 d after treatment, read-out: Wheat plant response rating (0 to 100 scale); for plant injury at 500 g/ha: 500 g ai/ha, visual injury, 0 to 100 scale (0 no effect, 100 complete control), approx. 10 d, read-out: Plant response rating, Wheat
In short: as §2

[6] = test system: pigweed (Amaranthus retroflexus); test: Test A postemergence; settings: Amaranthus retroflexus, post-emergence, 240 h, Postemergence; for pest or weed control at 125 g/ha: 125 g ai/ha, visual rating about 10 d after treatment, read-out: Pigweed plant response rating (0 to 100 scale); for pest or weed control at 500 g/ha: 500 g ai/ha, visual injury, 0 to 100 scale (0 no effect, 100 complete control), approx. 10 d, read-out: Plant response rating, Pigweed
In short: as §2

[7] = test system: barnyardgrass (Echinochloa crus-galli); test: Test A preemergence; settings: Echinochloa crus-galli, pre-emergence, 240 h, 0 to 100 scale (0 no effect, 100 complete control), read-out: Plant response rating, Barnyardgrass; for pest or weed control at 500 g/ha: 500 g ai/ha, preemergence; for pest or weed control at 125 g/ha: Preemergence, 125 g ai/ha
In short: as §2

[8] = test system: ragweed (common ragweed, Ambrosia elatior); test: Test A preemergence; settings: Ambrosia artemisiifolia, pre-emergence, 240 h, 0 to 100 scale (0 no effect, 100 complete control), read-out: Plant response rating, Ragweed; for pest or weed control at 500 g/ha: 500 g ai/ha, preemergence; for pest or weed control at 125 g/ha: Preemergence, 125 g ai/ha
In short: as §2

[9] = test system: ryegrass, Italian (Italian ryegrass, Lolium multiflorum); test: Test A preemergence; settings: Lolium multiflorum, pre-emergence, 240 h, 0 to 100 scale (0 no effect, 100 complete control), read-out: Plant response rating, Ryegrass, Italian; for pest or weed control at 500 g/ha: 500 g ai/ha, preemergence; for pest or weed control at 125 g/ha: Preemergence, 125 g ai/ha
In short: as §2

[10] = test system: pigweed (Amaranthus retroflexus); test: Test A preemergence; settings: Amaranthus retroflexus, pre-emergence, 240 h, 0 to 100 scale (0 no effect, 100 complete control), read-out: Plant response rating, Pigweed; for pest or weed control at 500 g/ha: 500 g ai/ha, preemergence; for pest or weed control at 125 g/ha: Preemergence, 125 g ai/ha
Kochia (Kochia scoparia) = test: Test A preemergence; settings: Bassia scoparia, pre-emergence, 240 h, 0 to 100 scale (0 no effect, 100 complete control), read-out: Plant response rating, Kochia; for pest or weed control at 500 g/ha: 500 g ai/ha, preemergence; for pest or weed control at 125 g/ha: Preemergence, 125 g ai/ha
In short: as §2

[11] = test system: giant foxtail (Setaria faberii); test: Test A preemergence; settings: Setaria faberi, pre-emergence, 240 h, 0 to 100 scale (0 no effect, 100 complete control), read-out: Plant response rating, Foxtail, Giant; for pest or weed control at 500 g/ha: 500 g ai/ha, preemergence; for pest or weed control at 125 g/ha: Preemergence, 125 g ai/ha
In short: as §2

| Structure (SMILES) | pest or weed control at 250 g/ha [1] | pest or weed control at 250 g/ha [2] | pest or weed control at 250 g/ha (rice (Oryra sativa)) | pest or weed control at 250 g/ha [3] | plant injury at 125 g/ha (corn (Zea mays)) | Corn plant response rating (crop injury, 0 = no effect, 100 = complete kill) at 500 g/ha (corn (Zea mays)) | pest or weed control at 125 g/ha [4] | pest or weed control at 500 g/ha [4] | plant injury at 125 g/ha [5] | plant injury at 500 g/ha [5] | pest or weed control at 125 g/ha [6] | pest or weed control at 500 g/ha [6] | pest or weed control at 500 g/ha [7] | pest or weed control at 125 g/ha [7] | pest or weed control at 500 g/ha [8] | pest or weed control at 125 g/ha [8] | pest or weed control at 500 g/ha [9] | pest or weed control at 125 g/ha [9] | pest or weed control at 500 g/ha [10] | pest or weed control at 125 g/ha [10] | further results |
| --- | --- | --- | --- | --- | --- | --- | --- | --- | --- | --- | --- | --- | --- | --- | --- | --- | --- | --- | --- | --- | --- |
| CN1CC[C@H](c2cccc(C(F)(F)F)c2)[C@@H](C(=O)Nc2cccc(F)c2F)C1=O [Compound 1330] | 85% | 90% | 0% | 0% | 90% | 0% | 0% | 20% | 50% | 70% | 0% | 0% | 90% | 90% | 50% | 0% | 50% | 50% | 0% | 0% | pest or weed control at 500 g/ha (Kochia (Kochia scoparia)): 90%; pest or weed control at 125 g/ha (Kochia (Kochia scoparia)): 20%; pest or weed control at 500 g/ha [11]: 90%; pest or weed control at 125 g/ha [11]: 90% |
| CN1CC[C@H](c2cccc(C(F)(F)F)c2)[C@@H](C(=O)Nc2ccccc2F)C1=O [Compound 1331] | 70% | 20% | 0% | 0% | 20% | 70% | 0% | 0% | 0% | 50% | 0% | 0% | 90% | 90% | 0% | 0% | 80% | 20% | 0% | 0% | pest or weed control at 500 g/ha (Kochia (Kochia scoparia)): 0%; pest or weed control at 125 g/ha (Kochia (Kochia scoparia)): 0%; pest or weed control at 500 g/ha [11]: 100%; pest or weed control at 125 g/ha [11]: 90% |
| CN1C[C@H](c2ccc(C(F)(F)F)nc2)[C@@H](C(=O)Nc2cccc(F)c2F)C1=O [Compound 1372] | 80% | 85% | 40% | 0% | 70% | 90% | 20% | 30% | 70% | 90% | 60% | 80% | 100% | 90% | 90% | 90% | 60% | 60% | 90% | 90% | pest or weed control at 500 g/ha (Kochia (Kochia scoparia)): 90%; pest or weed control at 125 g/ha (Kochia (Kochia scoparia)): 90%; pest or weed control at 500 g/ha [11]: 100%; pest or weed control at 125 g/ha [11]: 90% |
| CN1C[C@H](c2cc(C(F)(F)F)cs2)[C@@H](C(=O)Nc2cccc(F)c2F)C1=O [Compound 1377] | 60% | 90% | 15% | 0% | 50% | 80% | 30% | 60% | 30% | 60% | 20% | 40% | 100% | 80% | 30% | 0% | 50% | 20% | 40% | 20% | pest or weed control at 500 g/ha (Kochia (Kochia scoparia)): 80%; pest or weed control at 125 g/ha (Kochia (Kochia scoparia)): 70%; pest or weed control at 500 g/ha [11]: 100%; pest or weed control at 125 g/ha [11]: 100% |
